According to US9833497B2, “Human originated EGF domain proteins and use of the same” (CHENGDU SOURCEBIO LIMITED-LIABILITY COMPANY, priority 2013, dated 2017):

Key:
Assay type in all cases: cell-based
E. coli DH5α = assay: Antibacterial activity: MIC and growth curve against E. coli DH5α in 96-well plate; conditions: minimal inhibitory concentration against E. coli DH5α; 96-well plate, 5×10^5 CFU/mL, 37° C., judged after 8 h
In short: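 Log-phase bacteria (OD600 ~0.5) resuspended in LB at 5×10^5 CFU/mL, exposed to recombinant protein at 50, 25, 12.5 μg/mL final in triplicate, 37 °C shaking at 175 rpm. OD600 read every 30 min; MIC is lowest concentration showing no growth.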

E. coli BL21 = assay: MIC against Gram-negative bacteria: E. coli BL21; conditions: 5×10^5 CFU/mL; for MIC against E. coli BL21 / MIC E. coli BL21: 96-well plate, 37° C., 10 h; for MIC (μg/mL) E. coli BL21: 10 h cultivation at 37° C.
In short: (§1)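 The recombinant human-originated EGF domain proteins were serially diluted two-fold against bacteria at 5×10^5 CFU/mL in LB medium. After shaken incubation at 37° C, the lowest concentration with no bacterial growth was recorded as the MIC.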

Pseudomonas aeruginosa = assay: MIC against Gram-negative bacteria: Pseudomonas aeruginosa; conditions: 5×10^5 CFU/mL; for MIC against P. aeruginosa / MIC P. aeruginosa: 96-well plate, 37° C., 10 h; for MIC (μg/mL) P. aeruginosa: 10 h cultivation at 37° C.
In short: as §1

Klebsiella pneumonia = assay: MIC against Gram-negative bacteria: Klebsiella pneumonia; conditions: 5×10^5 CFU/mL; for MIC against K. pneumonia / MIC K. pneumonia: 96-well plate, 37° C., 10 h; for MIC (μg/mL) K. pneumonia: 10 h cultivation at 37° C.
In short: as §1

Enterobacter cloacae = assay: MIC against Gram-negative bacteria: Enterobacter cloacae; conditions: 5×10^5 CFU/mL; for MIC against E. cloacae / MIC E. cloacae: 96-well plate, 37° C., 10 h; for MIC (μg/mL) E. cloacae: 10 h cultivation at 37° C.
In short: as §1

Aeromonas hydrophila = assay: MIC against Gram-negative bacteria: Aeromonas hydrophila; conditions: 5×10^5 CFU/mL; for MIC against A. hydrophila / MIC A. hydrophila: 96-well plate, 37° C., 10 h; for MIC (μg/mL) A. hydrophila: 10 h cultivation at 37° C.
In short: as §1

Citrobacter diversus = assay: MIC against Gram-negative bacteria: Citrobacter diversus; conditions: 5×10^5 CFU/mL; for MIC against C. diversus / MIC C. diversus: 96-well plate, 37° C., 10 h; for MIC (μg/mL) C. diversus: 10 h cultivation at 37° C.
In short: as §1

Moraxella catarrhalis = assay: MIC against Gram-negative bacteria: Moraxella catarrhalis; conditions: 5×10^5 CFU/mL; for MIC against M. catarrhalis / MIC M. catarrhalis: 96-well plate, 37° C., 10 h; for MIC (μg/mL) M. catarrhalis: 10 h cultivation at 37° C.
In short: as §1

Proteus mirabilis = assay: MIC against Gram-negative bacteria: Proteus mirabilis; conditions: 5×10^5 CFU/mL; for MIC against P. mirabilis / MIC P. mirabilis: 96-well plate, 37° C., 10 h; for MIC (μg/mL) P. mirabilis: 10 h cultivation at 37° C.
In short: as §1

Proteus vulgaris = assay: MIC against Gram-negative bacteria: Proteus vulgaris; conditions: 5×10^5 CFU/mL; for MIC against P. vulgaris / MIC P. vulgaris: 96-well plate, 37° C., 10 h; for MIC (μg/mL) P. vulgaris: 10 h cultivation at 37° C.
In short: as §1

Serratia marcescens = assay: MIC against Gram-negative bacteria: Serratia marcescens; conditions: 5×10^5 CFU/mL; for MIC against S. marcescens / MIC S. marcescens: 96-well plate, 37° C., 10 h; for MIC (μg/mL) S. marcescens: 10 h cultivation at 37° C.
In short: as §1

“PRT1213 (HSDYCSQNTCLNGGKCSWTHGAGYVCKCPPQFSGKHCE; listed as Homo sapiens)” was tested, and the MIC (E. coli DH5α) was 25 µg/mL, the “MIC against E. coli BL21” value (E. coli BL21; E. coli BL21) was 25 µg/mL and the “MIC against P. aeruginosa” value (Pseudomonas aeruginosa; Pseudomonas aeruginosa) was 50 µg/mL. The “MIC against K. pneumonia” value (Klebsiella pneumonia; Klebsiella pneumonia) was 25 µg/mL, the “MIC against E. cloacae” value (Enterobacter cloacae; Enterobacter cloacae) was 100 µg/mL and the “MIC against A. hydrophila” value (Aeromonas hydrophila; Aeromonas hydrophila) was 50 µg/mL. The “MIC against C. diversus” value (Citrobacter diversus; Citrobacter diversus) was 25 µg/mL, the “MIC against M. catarrhalis” value (Moraxella catarrhalis; Moraxella catarrhalis) was 12.5 µg/mL and the “MIC against P. mirabilis” value (Proteus mirabilis; Proteus mirabilis) was 25 µg/mL. The “MIC against P. vulgaris” value (Proteus vulgaris; Proteus vulgaris) was 50 µg/mL and the “MIC against S. marcescens” value (Serratia marcescens; Serratia marcescens) was 25 µg/mL.
For “PRT1275 (EGMNCMNKNHGCAHICRETPKGGIACECRPGFELTKNQRDCK; listed as Homo sapiens)”, the MIC (E. coli DH5α) was 12.5 µg/mL, the “MIC against E. coli BL21” value (E. coli BL21; E. coli BL21) was 50 µg/mL and the “MIC against P. aeruginosa” value (Pseudomonas aeruginosa; Pseudomonas aeruginosa) was 12.5 µg/mL. For the same substance, the “MIC against K. pneumonia” value (Klebsiella pneumonia; Klebsiella pneumonia) was 50 µg/mL, the “MIC against E. cloacae” value (Enterobacter cloacae; Enterobacter cloacae) was 12.5 µg/mL and the “MIC against A. hydrophila” value (Aeromonas hydrophila; Aeromonas hydrophila) was 50 µg/mL. For the same substance, the “MIC against C. diversus” value (Citrobacter diversus; Citrobacter diversus) was 50 µg/mL, the “MIC against M. catarrhalis” value (Moraxella catarrhalis; Moraxella catarrhalis) was 12.5 µg/mL and the “MIC against P. mirabilis” value (Proteus mirabilis; Proteus mirabilis) was 50 µg/mL. For the same substance, the “MIC against P. vulgaris” value (Proteus vulgaris; Proteus vulgaris) was 25 µg/mL and the “MIC against S. marcescens” value (Serratia marcescens; Serratia marcescens) was 12.5 µg/mL.
With “PRT815 (YGPSCQTRCSCANDGHCHPATGHCSCAPGWTGFSCQ; listed as Homo sapiens)” the MIC (E. coli DH5α) was 25 µg/mL, the “MIC (μg/mL) E. coli BL21” value (E. coli BL21; E. coli BL21) was 12.5 µg/mL and the “MIC (μg/mL) P. aeruginosa” value (Pseudomonas aeruginosa) was 12.5 µg/mL. The “MIC (μg/mL) K. pneumonia” value (Klebsiella pneumonia) was 12.5 µg/mL, the “MIC (μg/mL) E. cloacae” value (Enterobacter cloacae) was 25 µg/mL and the “MIC (μg/mL) A. hydrophila” value (Aeromonas hydrophila) was 12.5 µg/mL. The “MIC (μg/mL) C. diversus” value (Citrobacter diversus) was 25 µg/mL, the “MIC (μg/mL) M. catarrhalis” value (Moraxella catarrhalis) was 50 µg/mL and the “MIC (μg/mL) P. mirabilis” value (Proteus mirabilis) was 25 µg/mL. The “MIC (μg/mL) P. vulgaris” value (Proteus vulgaris) was 12.5 µg/mL and the “MIC (μg/mL) S. marcescens” value (Serratia marcescens) was 25 µg/mL.
“PRT664 (DINECLTLGLCKDAECVNTRGSYLCTCRPGLMLDPSRSRCV; listed as Homo sapiens)” was tested, and the MIC (E. coli DH5α) was 25 µg/mL, the “MIC E. coli BL21” value (E. coli BL21) was 50 µg/mL and the “MIC P. aeruginosa” value (Pseudomonas aeruginosa) was 25 µg/mL. For the same substance, the “MIC K. pneumonia” value (Klebsiella pneumonia) was 12.5 µg/mL, the “MIC E. cloacae” value (Enterobacter cloacae) was 25 µg/mL and the “MIC A. hydrophila” value (Aeromonas hydrophila) was 50 µg/mL. For the same substance, the “MIC C. diversus” value (Citrobacter diversus) was 12.5 µg/mL, the “MIC M. catarrhalis” value (Moraxella catarrhalis) was 25 µg/mL and the “MIC P. mirabilis” value (Proteus mirabilis) was 50 µg/mL. The “MIC P. vulgaris” value (Proteus vulgaris) was 12.5 µg/mL and the “MIC S. marcescens” value (Serratia marcescens) was 25 µg/mL.
In the case of “PRT609 (CHCSPVGSLSTQCDSYGRCSCKPGVMGDKCDRCQPGFHSLTEAGCRP; listed as Homo sapiens)”, the MIC (E. coli DH5α) is reported as 50 µg/mL, the “MIC E. coli BL21” value (E. coli BL21) is reported as 25 µg/mL and the “MIC P. aeruginosa” value (Pseudomonas aeruginosa) is reported as 12.5 µg/mL. The “MIC K. pneumonia” value (Klebsiella pneumonia) was 25 µg/mL, the “MIC E. cloacae” value (Enterobacter cloacae) was 50 µg/mL and the “MIC A. hydrophila” value (Aeromonas hydrophila) was 25 µg/mL. For the same substance, the “MIC C. diversus” value (Citrobacter diversus) was 12.5 µg/mL, the “MIC M. catarrhalis” value (Moraxella catarrhalis) was 25 µg/mL and the “MIC P. mirabilis” value (Proteus mirabilis) was 50 µg/mL. The “MIC P. vulgaris” value (Proteus vulgaris) was 25 µg/mL and the “MIC S. marcescens” value (Serratia marcescens) was 12.5 µg/mL.
In the case of “PRT467 (ECPGGCRNGGFCNERRICECPDGFHGPHCE; listed as Homo sapiens)”, the MIC (E. coli DH5α) is reported as 12.5 µg/mL, the “MIC against E. coli BL21” value (E. coli BL21) is reported as 12.5 µg/mL and the “MIC against P. aeruginosa” value (Pseudomonas aeruginosa) is reported as 12.5 µg/mL. For the same substance, the “MIC against K. pneumonia” value (Klebsiella pneumonia) was 25 µg/mL, the “MIC against E. cloacae” value (Enterobacter cloacae) was 12.5 µg/mL and the “MIC against A. hydrophila” value (Aeromonas hydrophila) was 25 µg/mL. For the same substance, the “MIC against C. diversus” value (Citrobacter diversus) was 50 µg/mL, the “MIC against M. catarrhalis” value (Moraxella catarrhalis) was 25 µg/mL and the “MIC against P. mirabilis” value (Proteus mirabilis) was 12.5 µg/mL. For the same substance, the “MIC against P. vulgaris” value (Proteus vulgaris) was 25 µg/mL and the “MIC against S. marcescens” value (Serratia marcescens) was 50 µg/mL.
For “PRT817 (FGPGCEQRCQCQHGAACDHVSGACTCPAGWRGTFCE; listed as Homo sapiens)”, the MIC (E. coli DH5α) was 50 µg/mL, the “MIC (μg/mL) E. coli BL21” value (E. coli BL21; E. coli BL21) was 12.5 µg/mL and the “MIC (μg/mL) P. aeruginosa” value (Pseudomonas aeruginosa) was 50 µg/mL. The “MIC (μg/mL) K. pneumonia” value (Klebsiella pneumonia) was 25 µg/mL, the “MIC (μg/mL) E. cloacae” value (Enterobacter cloacae) was 12.5 µg/mL and the “MIC (μg/mL) A. hydrophila” value (Aeromonas hydrophila) was 25 µg/mL. The “MIC (μg/mL) C. diversus” value (Citrobacter diversus) was 50 µg/mL, the “MIC (μg/mL) M. catarrhalis” value (Moraxella catarrhalis) was 25 µg/mL and the “MIC (μg/mL) P. mirabilis” value (Proteus mirabilis) was 12.5 µg/mL. For the same substance, the “MIC (μg/mL) P. vulgaris” value (Proteus vulgaris) was 50 µg/mL and the “MIC (μg/mL) S. marcescens” value (Serratia marcescens) was 12.5 µg/mL.
